Laboratory results: ChEMBL document CHEMBL1129657, “Tetrahydrobenzothiophenone derivatives as a novel class of adenosine receptor antagonists” (J Med Chem, 1996)
“And” between values parts separate entries of the source, which are not always exact repeats. Equal values may be shown once.

Columns and labels:
[1] = target: T1, Adenosine receptor A1 (Rattus norvegicus, UniProt P25099); assay: Tested for the displacement [3H]PIA from Adenosine A1 receptor in rat brain membrane; format: cell membranes
T1 sequence (P25099 whole entry): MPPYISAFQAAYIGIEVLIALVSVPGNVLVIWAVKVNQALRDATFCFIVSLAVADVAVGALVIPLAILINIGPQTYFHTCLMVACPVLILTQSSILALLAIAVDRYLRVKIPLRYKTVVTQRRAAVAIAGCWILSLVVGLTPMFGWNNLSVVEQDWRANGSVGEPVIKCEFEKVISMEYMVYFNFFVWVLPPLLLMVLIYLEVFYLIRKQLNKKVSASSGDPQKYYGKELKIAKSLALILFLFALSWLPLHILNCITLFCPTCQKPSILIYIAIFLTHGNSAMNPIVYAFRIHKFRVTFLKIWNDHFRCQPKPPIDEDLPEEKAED

[2] = target: T2, Adenosine receptor A2a (Rattus norvegicus, UniProt P30543)
Description: (§1) Displacement [3H]-CGS-21,680 from Adenosine A2A receptor in rat striatal membrane.

[3] = target: T3, Adenosine receptor A3 (Homo sapiens, UniProt P0DMS8); assay: Displacement of [125I]AB-MECA from human Adenosine A3 receptor expressed in HEK293 cell membrane; format: cell membranes
T3 sequence (P0DMS8 whole entry): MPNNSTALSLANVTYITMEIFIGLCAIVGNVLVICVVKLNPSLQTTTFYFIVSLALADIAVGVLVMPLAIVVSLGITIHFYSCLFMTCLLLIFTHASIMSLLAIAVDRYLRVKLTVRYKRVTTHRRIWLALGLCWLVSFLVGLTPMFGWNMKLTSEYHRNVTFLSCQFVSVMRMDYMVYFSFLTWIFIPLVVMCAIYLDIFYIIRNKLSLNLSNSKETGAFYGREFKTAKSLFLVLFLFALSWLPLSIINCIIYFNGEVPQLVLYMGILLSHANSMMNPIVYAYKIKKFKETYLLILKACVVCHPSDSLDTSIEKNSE

[4] = target: T4, Adenosine receptor A3 (Rattus norvegicus, UniProt P28647); assay: Displacement of [125I]AB-MECA from rat Adenosine A3 receptor expressed in CHO cell membrane; format: cell membranes
T4 sequence (P28647 whole entry): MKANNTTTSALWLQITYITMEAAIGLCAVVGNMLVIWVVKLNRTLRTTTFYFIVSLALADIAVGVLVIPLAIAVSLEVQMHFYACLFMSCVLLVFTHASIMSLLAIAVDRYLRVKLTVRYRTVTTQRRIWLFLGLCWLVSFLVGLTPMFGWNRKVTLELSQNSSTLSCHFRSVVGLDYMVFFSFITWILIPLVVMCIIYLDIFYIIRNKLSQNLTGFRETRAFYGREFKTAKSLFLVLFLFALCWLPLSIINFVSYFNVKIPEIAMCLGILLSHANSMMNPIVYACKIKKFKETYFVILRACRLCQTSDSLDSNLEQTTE

[5] = target: Adenosine receptors; A1 & A2a (Rattus norvegicus) (UniProt P25099+P30543); assay: Selectivity for adenosine A2a and A1 receptors; format: protein assay
[6] = target: T5, Adenosine receptor A1 (Rattus norvegicus) (UniProt P25099); assay: Displacement of [3H]PIA from Adenosine A1 receptor of rat brain membrane at 10e-4 M
T5 sequence (whole entry): T1 sequence (P25099 whole entry)

[7] = target: Adenosine receptor A2a (Rattus norvegicus) (UniProt P30543); assay: Displacement [3H]CGS-21680 from Adenosine A2A receptor in rat striatal membrane; format: cell membranes; set-up: concentration or dose not given beside the values; conditions: Striatum, concentration not given here
[8] = target: T6, Adenosine receptor A3 (Homo sapiens) (UniProt P0DMS8); assay: Displacement of [125I]AB-MECA from human Adenosine A3 receptor expressed in HEK293 cell membrane at 10e-4 M; format: cell membranes
T6 sequence (whole entry): T3 sequence (P0DMS8 whole entry)

[9] = target: T2, Adenosine receptor A2a; remark: listed apart in the source
Description: as §1

[10] = target: Adenosine A1 receptor (Rattus norvegicus) (UniProt P25099); assay: Selectivity for rat adenosine A3 and rat adenosine A1 receptors

T2 sequence (P30543 whole entry): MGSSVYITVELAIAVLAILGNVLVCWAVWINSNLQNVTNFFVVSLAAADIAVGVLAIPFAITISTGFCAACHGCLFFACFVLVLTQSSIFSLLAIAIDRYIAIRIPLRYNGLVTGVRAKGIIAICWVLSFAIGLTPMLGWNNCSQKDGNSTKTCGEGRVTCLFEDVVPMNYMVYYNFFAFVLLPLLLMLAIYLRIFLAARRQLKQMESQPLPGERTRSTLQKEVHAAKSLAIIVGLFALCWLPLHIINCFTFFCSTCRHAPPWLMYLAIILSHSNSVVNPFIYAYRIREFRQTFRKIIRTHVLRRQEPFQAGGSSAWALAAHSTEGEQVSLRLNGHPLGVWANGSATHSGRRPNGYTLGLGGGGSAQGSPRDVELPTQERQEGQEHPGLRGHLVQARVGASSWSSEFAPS
Chain of Adenosine receptor A2a (Rattus norvegicus) (P30543 whole entry): as above
Chain of Adenosine receptors; A1 & A2a (Rattus norvegicus) (P30543 whole entry, looked up, one chain of several): as the sequence (P30543 whole entry) above

Row | Compound | Ki [1] | Ki [2] [µM] | Selectivity [5] | also measured
1 | COc1cc(-c2oc3c(OC)cc(CCCO)cc3c2C=O)ccc1O | 17 nM | – | – | –
2 | O=C(O)c1sc(SCc2ccccc2)c2c1CCCC2=O | 50000 nM | 15.2 | 0.3 | Ki [3]: 117 µM; Ki [4]: 42 µM
3 | CSc1scc2c1C(=O)CCC2 | – | – | > 1 | inhibition [6]: 28%; inhibition [7]: < 10%
4 | CCOC(=O)c1sc(S(C)(=O)=O)c2c1CC(C)(C)CC2=O | 32700 nM | – | > 3.1 | Ki [4]: 51.8 µM; inhibition [7]: 13%; Selectivity [10]: 1.58
5 | O=c1c(-c2ccc(O)cc2)coc2cc(O)cc(O)c12 [GENISTEIN] | – | 36 | – | –
6 | CCOC(=O)c1sc(SC(C)CC)c2c1CC(C)(C)CC2=O (stereo not drawn) | 3640 nM | 106 | 29.1 | –
7 | Nc1nc2ccc(Cl)cc2c2nc(-c3ccco3)nn12 [CGS-15943] | – | 3.3 | – | –
8 | CCOC(=O)c1sc(SCc2ccccc2)c2c1CC(C)(C)CC2=O | 567 nM | – | > 17.6 | inhibition [7]: 34%
9 | CCOC(=O)c1sc(SC)c2c1CCC/C2=N/OC | 69800 nM | – | > 1.4 | inhibition [7]: 22%
10 | Nc1nc2ccc(Cl)cc2n2c(-c3ccccc3)nnc12 | – | 0.021 | – | –
11 | CSc1sc(C(=O)NN)c2c1C(O)CCC2 (stereo not drawn) | 71200 nM | – | > 1.4 | inhibition [7]: 28.9%
12 | CCOC(=O)c1sc(SCC)c2c1CC(C)(C)CC2=O | – | 23.9 | – | –
13 | CSc1sc(C(=O)NN)c2c1C=CCC2 | 51600 nM | – | > 1.9 | Ki [4]: 13.1 µM; inhibition [7]: < 10%; Selectivity [10]: 0.25
14 | CCOC(=O)c1sc(SC)c2c1CCCC2O (stereo not drawn) | 18300 nM | 33.5 | 1.8 | Ki [3]: 35.8 µM; Ki [4]: 15.4 µM; Selectivity [10]: 0.84
15 | Nc1nc2ccccc2n2cc(-c3ccccc3)nc12 | 34 nM | 0.29 | – | –

The next lines start with results.

Row | Ki [1] | Ki [2] [µM] | Selectivity [5] | Compound | also measured
16 | 720 nM and 715 nM | 1.36 | 1.9 | CCOC(=O)c1sc(SCc2ccccc2)c2c1CCCC2=O | inhibition [8]: 24%; Ki [9]: 1360 nM
17 | 1260 nM | 4.69 | 3.7 | CCCSc1sc(C(=O)OCC)c2c1C(=O)CCC2 | –
18 | 1790 nM | 4.63 | 2.6 | CCOC(=O)c1sc(SC(C)C)c2c1CCCC2=O | –
19 | 1060 nM | 6.04 | 5.7 | C=CCSc1sc(C(=O)OCC)c2c1C(=O)CCC2 | –
20 | 17500 nM | 36.1 | 2.1 | CCOC(=O)c1sc(NN)c2c1CCCC2=O | –
21 | 2220 nM | 25.6 | 11.5 | CCOC(=O)CSc1sc(C(=O)OCC)c2c1C(=O)CCC2 | Ki [4]: 10.2 µM; Selectivity [10]: 4.59
22 | 1420 nM | 15.6 | 11 | CCCCSc1sc(C(=O)OCC)c2c1C(=O)CCC2 | –
23 | 1930 nM | 3.66 | 1.9 | CCOC(=O)c1sc(SC)c2c1CCCC2=O | Ki [4]: 15.2 µM; Selectivity [10]: 7.88
